Four molecules from publication PMC8748766, “The catalytic activity of TCPTP is auto-regulated by its intrinsically disordered tail and activated by Integrin alpha-1” (Nature Communications, 2022) can be followed below.

In general, kcat refers to the number of substrate molecules converted per active site and unit of time at saturation. One may read the Km as the substrate concentration at which the rate is half of its maximum.

For data set [1], the target named is T1, TCPTP (Homo sapiens, UniProt P17706).
T1 construct: fragments of TCPTP (residues: 1–387); His6 (N, cleaved yes); made in house; host or cells: E. coli BL21 (DE3) RIL
T1 sequence (P17706 1-387 isoform P17706-2): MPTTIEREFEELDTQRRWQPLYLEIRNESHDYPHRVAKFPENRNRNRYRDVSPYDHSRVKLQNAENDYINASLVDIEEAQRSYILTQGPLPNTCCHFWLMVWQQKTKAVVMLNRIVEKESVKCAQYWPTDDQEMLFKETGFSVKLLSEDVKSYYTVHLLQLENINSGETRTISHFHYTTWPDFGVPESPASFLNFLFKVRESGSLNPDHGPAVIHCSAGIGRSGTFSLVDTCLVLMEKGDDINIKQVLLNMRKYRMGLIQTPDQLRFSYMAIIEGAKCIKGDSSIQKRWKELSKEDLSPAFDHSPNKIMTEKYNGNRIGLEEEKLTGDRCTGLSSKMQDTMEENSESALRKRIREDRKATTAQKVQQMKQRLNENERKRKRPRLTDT
As to the kind of experiment: Kinetics of TCPTP with saturating ITGA1 peptide, pEGFR peptide-1 substrate. The class given is biochemical. As to conditions: TCPTP saturated with ITGA1 peptide (ITGA1_TR 1 μM; ITGA1_FCT 25 μM), mean ± SE, n = 9. The source says: (§1) Polymerase chain reaction (PCR) fragments of TCPTP (residues: 1–387) TCPTPCAT (catalytic domain, residues: 1–288, 1–302 or 1–314), TCPTPTail (C-terminal tail, residues: 289–387 or 303–387) were amplified from full-length human TCPTP (TC45 isoform). TCPTP, TCPTPCAT (residues: 1–288, 1–314), and TCPTPTail (residues: 289–387) fragments were cloned into pMCSG7 including a N-terminal His6-tag using ligation-independent cloning. For all NMR experiments, the PCR fragments of TCPTP, TCPTPCAT (residues: 1–302) and TCPTPTail (residue: 303–387) were sub-cloned into pRP1B as previously described.
(§2) The rate of dephosphorylation of TCPTP and TCPTPCAT (residue 1–314) against 2 phosphotyrosine peptides derived from EGFR was monitored either with or without ITGA1 peptide (ITGA1_FCT & ITGA1_TR) in assay buffer (25 mM Hepes pH 7.4, 50 mM NaCl and 1 mM DTT). Lyophilized powder of all synthetic peptides was dissolved in assay buffer without DTT (phosphopeptides, 5 mM; ITGA1 peptides, 2 mM). For the kinetic analysis, the concentration of the enzyme was fixed at 1 nM while the substrate (phosphopeptides) concentration was varied from 2.5 μM to 160 μM in a total reaction volume of 200 μl. Effect of ITGA1 peptide on TCPTP & TCPTPCAT kinetics were assessed in saturated condition by adding an excess amount of ITGA1 peptide to the reaction mixture (ITGA1_TR = 1 μM; ITGA1_FCT = 25 μM). The reaction was incubated at 30 °C for 30 min and stopped by the addition of 30 μl phosphate reagent (phosphate colorimetric assay kit; Bio Vision) following the manufacturer’s instructions. Data were normalized and fitted using a nonlinear curve, and kinetics parameters (KM and kcat) were calculated from the Michaelis-Menten equation using Graph Pad Prism 9.0. All data points in the enzyme kinetics experiment were measured in triplicate, and the experiments were repeated three times.

For data set [2], the target named is T1, TCPTP. As to the kind of experiment: Kinetics of TCPTP with saturating ITGA1 peptide, pEGFR peptide-2 substrate. The class given is biochemical. As to conditions: TCPTP saturated with ITGA1 peptide (ITGA1_TR 1 μM; ITGA1_FCT 25 μM), mean ± SE, n = 9.
Text: as §1, §2

The target of data set [3] is T1, TCPTP. As to the kind of experiment: EC50 assay: TCPTP activation by ITGA1 peptides (pEGFR peptide-1 dephosphorylation). The class given is biochemical. As to conditions: 1 nM TCPTP, 50 μM pEGFR peptide-1, n = 3.
Text: as §1
To determine the EC50, synthesized ITGA1 peptides (ITGA1_FCT, ITGA1_TCT and ITGA1_TR) were mixed with TCPTP, and phosphatase activity was measured using the phospho-EGFR peptides (pEGFR peptide-1) as substrate. Lyophilized powder of all peptides was dissolved in 25 mM Hepes pH 7.4, 50 mM NaCl. For the assay, the TCPTP concentration was fixed at 1 nM and substrate phospho-peptide at 50 μM. […] The absorbance of the reaction mixture was measured at 650 nm, which was converted to the amount of phosphate produced in reaction based on the standard curve generated from the known phosphate concentration. Data obtained from the reaction was fitted using nonlinear regression mode and EC50 values were calculated based on the equation function “Log(agonist) vs. response-variable slope” using Graph Pad Prism 9.0.

A further data set has as its target T2, TCPTPCAT (Homo sapiens, UniProt P17706).
T2 construct: TCPTP and TCPTPCAT (residue 1–314) against 2 phosphotyrosine peptides derived from EGFR; His6 (N, cleaved yes); made in house; host or cells: E. coli BL21 (DE3) RIL
T2 sequence (P17706 1-314 isoform P17706-2): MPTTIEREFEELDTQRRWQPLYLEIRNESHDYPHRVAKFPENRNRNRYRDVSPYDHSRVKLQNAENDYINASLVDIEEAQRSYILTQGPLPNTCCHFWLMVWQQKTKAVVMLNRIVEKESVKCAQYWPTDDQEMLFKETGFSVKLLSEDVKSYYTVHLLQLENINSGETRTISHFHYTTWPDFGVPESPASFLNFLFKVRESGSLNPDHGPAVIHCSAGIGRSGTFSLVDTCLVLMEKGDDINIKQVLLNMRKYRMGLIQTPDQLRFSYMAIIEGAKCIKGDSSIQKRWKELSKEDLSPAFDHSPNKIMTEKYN
As to the kind of experiment: NMR titration (2D HSQC/TROSY) binding to TCPTPCAT
As to conditions: 2D [1H,15N] TROSY, unlabeled ligand added.
Text: as §1
NMR data were collected on either Bruker NEO 600 MHz or 800 MHz spectrometers equipped with TCI HCN z-gradient cryoprobes at 298 K or 283 K. NMR measurements of TCPTP’s variant construct were recorded using (^1H,^15N)-, (^2H,^15N)-, (^1H,^15N,^13C), or (^2H,^15N,^13C)-labeled protein at a final concentration of 0.6 mM for backbone assignment or 0.1 mM for titration in NMR buffer and 90% H2O/10% D2O. The sequence-specific backbone assignments of TCPTP (residues 1–387), TCPTPCAT (residues 1–302), TCPTPTail (residues 303–387) and other variants were achieved using 3D triple resonance experiments including […], 3D HNCA, 3D HN(CO)CA, 3D HN(CO)CACB, and 3D HNCACB either as HSQC or TROSY variations. All NMR data were processed using TopSpin 4.0.5[44] and analyzed using either CARA (http://www.cara.nmr.ch) and/or CcpNMR[45].

Data set [4] concerns the target T1, TCPTP. Description: Effect of ITGA1, ITGA10 & ITGA11 peptide on TCPTP activity, pEGFR peptide-2. As to conditions: pEGFR peptide-2 substrate, n = 9. Type of data set: biochemical.
Text: as §1
Relative activity of TCPTP and its variant mutant construct were measured by adding 1 nM of enzymes against the fixed concentration of substrate (100 μM of phosphopeptides), the reaction was incubated at 30 °C for 30 min in assay buffer before getting stopped as described above. […]
Supplementary Figure 8: TCPTP is distinctively activated by Integrin cytoplasmic tail with positive charge residue clusters. a Sequence alignment of the cytoplasmic tail for the human Integrin family. Positive charge residues are highlighted in blue, while negative charge residues are red; a black box highlights large clusters of positive charge residue. b Effect of ITGA1, ITGA10 & ITGA11 on the catalytic activity of TCPTP, measured against pEGFR peptide-2, derived from the EGFR’s kinase domain activation loop. […]

For data set [5], the system named is pEGFR peptide-1, derived from the cytoplasmic tail of EGFR. As to the kind of experiment: Phosphatase kinetic analysis (Michaelis-Menten) of TCPTP constructs, pEGFR peptide-1 substrate. The class given is biochemical. On the procedure:
as §2

The test system of data set [6] is pEGFR peptide-2, derived from the EGFR's kinase domain activation loop. As to the kind of experiment: Phosphatase kinetic analysis (Michaelis-Menten) of TCPTP constructs, pEGFR peptide-2 substrate. The class given is biochemical. On the procedure:
as §2
Supplementary Table 2: Enzymatic activity assay (Michaelis-Menten analysis); substrate pEGFR peptide-2, derived from the EGFR’s kinase domain activation loop. Calculated kinetic parameter are presented as the mean of nine independent reactions (n=9; mean ± SE). Source data are provided as a Source Data file. kcat (s-1) Km (µM) kcat/Km (µM -1s-1)

The nature of data set [7]: DiFMUP assay of TCPTP, TCPTPCAT, PTP1B and PTP1BCAT. The class given is biochemical. As to conditions: 10 μM DiFMUP, 2.5 nM protein, pH 7.4, 25 min, fluorescence 455 nm; n = 9. On the procedure: Activity of TCPTP, TCPTPCAT (residue 1–314) either with or without ITGA1 peptides (ITGA1_TR; 1:50 molar ratio, ITGA1_FCT; 1:1000 molar ratio), PTP1B (residue 1–400) and PTP1BCAT (residue 1–321) were assessed in assay buffer (25 mM Hepes pH 7.4, 50 mM NaCl, and 1 mM DTT). The assay was performed in black polystyrene flat bottom 96-well plate. The concentration of DiFMUP was fixed at 10 μM and protein concentration at 2.5 nM in total reaction volume of 100 μl. The emitted fluorescent signal at 455 nm was continuously recorded for 25 min using a Tecan Infinite M1000 pro microplate reader (Tecan i-control, 2.0.10.0).

Where [8] appears, read: pEGFR peptide-2 2.5-160 μM, 1 nM enzyme, pH 7.4, 30 °C 30 min, mean ± SE, n = 9.

For the molecule “KIGFFKRPLKKKMEK [ITGA1_FCT, ITGA1 full cytoplasmic tail: …]”, the kcat amounted to 26.6 ± 0.8 s⁻¹ on TCPTP [1] (pEGFR peptide-1, 1 nM enzyme, pH 7.4, 30 °C 30 min) and 30.2 ± 1.2 s⁻¹ at TCPTP [2] (pEGFR peptide-2, pH 7.4, 30 °C 30 min). The Km turned out to be 20.2 ± 1.9 µM at TCPTP [1] (pEGFR peptide-1, pH 7.4, 30 °C) and 32.8 ± 3.7 µM at TCPTP [2] (pEGFR peptide-2). Further, the values for the kcat/Km at TCPTP [1] (pEGFR peptide-1) and at TCPTP [2] (pEGFR peptide-2) were 1.3e+06 ± 100000 M⁻¹ s⁻¹ and 0.9 ± 0.1 µM -1s-1, respectively. Also, the “activation relative to ITGA1_TCT” value at TCPTP [3] is “functions better than ITGA1_TCT”. The “NMR titration: CSPs in (2H,15N)-labeled TCPTPCAT” value at TCPTPCAT is reported as “significant CSPs in the same residues”.
For KLGFFRSARRRREPGLDPTPKVLE [ITGA11], the TCPTP activation entry on TCPTP [4] is “efficiently activates TCPTP”.
On to KLGFFAHKKIPEEEKREEKLEQ [ITGA10], for which the TCPTP activation entry on TCPTP [4] is on record as “fails to do so”.

B1: TCPTP: T-Cell Protein Tyrosine Phosphatase, TC45 isoform, full-length residues 1–387 (protein)
chain: MPTTIEREFEELDTQRRWQPLYLEIRNESHDYPHRVAKFPENRNRNRYRDVSPYDHSRVKLQNAENDYINASLVDIEEAQRSYILTQGPLPNTCCHFWLMVWQQKTKAVVMLNRIVEKESVKCAQYWPTDDQEMLFKETGFSVKLLSEDVKSYYTVHLLQLENINSGETRTISHFHYTTWPDFGVPESPASFLNFLFKVRESGSLNPDHGPAVIHCSAGIGRSGTFSLVDTCLVLMEKGDDINIKQVLLNMRKYRMGLIQTPDQLRFSYMAIIEGAKCIKGDSSIQKRWKELSKEDLSPAFDHSPNKIMTEKYNGNRIGLEEEKLTGDRCTGLSSKMQDTMEENSESALRKRIREDRKATTAQKVQQMKQRLNENERKRKRPRLTDT
modifications: left off: His6, N-terminal, cleaved
B1: the kcat is 12.2 ± 0.2 s⁻¹ in data set [5] (pEGFR peptide-1 2.5-160 μM, 1 nM enzyme, 25 mM Hepes pH 7.4, 50 mM NaCl, 1 mM DTT, 30 °C 30 min, mean ± SE, n = 9 (TCPTPCAT, TCPTP) or 12 (TCPTPC-term, TCPTPL1)) and 13.8 ± 0.5 s⁻¹ in data set [6] (setting [8]). The Km in data set [5] (pEGFR peptide-1 2.5-160 μM, 1 nM enzyme, pH 7.4, 30 °C 30 min, mean ± SE, n = 9 (TCPTPCAT, TCPTP) or 12 (TCPTPC-term, TCPTPL1)) worked out at 12.4 ± 0.6 µM; in data set [6] (setting [8]), 21.2 ± 2.6 µM. Moreover, the kcat/Km in data set [5] (pEGFR peptide-1, pH 7.4, 30 °C, mean ± SE, n = 9 (TCPTPCAT, TCPTP) or 12 (TCPTPC-term, TCPTPL1)) is 1e+06 ± 100000 M⁻¹ s⁻¹; in data set [6] (pEGFR peptide-2, mean ± SE, n = 9), 0.6 ± 0.1 µM -1s-1. Further, the “rate of dephosphorylation, fold slower than TCPTPCAT” value in data set [5] (pEGFR peptide-1, vs TCPTPCAT) is ~ 3 fold; in data set [6] (pEGFR peptide-2, vs TCPTPCAT) it was ~ 3 fold. For the same molecule, in data set [7], the “DiFMUP dephosphorylation, times slower than with TCPTPCAT” value is given as ~ 3 times.
